This passage reports proliferation of bifidobacteria results from patent US11376215B2, “Feed composition for improving intraintestinal environment” (AJINOMOTO CO., INC., priority 2017, dated 2022).

The test system of one assay is bifidobacteria. In words: Experimental Example 1-1: addition test of amino acid and fructo-oligosaccharide to human feces suspension. The following applies: amino acid added together with 0.5% FOS, anaerobic culture 4 days at 37° C., quantitative PCR, compared with FOS alone. The format is cell-based. Here is the method: The PBS solutions for the Examples and Comparative Examples shown in Table 1-1 were prepared and used as media for a feces culture. PBS alone was used as a control. Fructo-oligosaccharide (FOS) manufactured by Wako Pure Chemical Industries, Ltd. (#064-02385) was used.
(§1) Thereafter, 10 ml of each solution was dispensed into glass vials and the glass vials were sterilized by autoclave, made anaerobic, and sealed with a butyl rubber stopper. The feces suspension was prepared by collecting about 10 g of feces from 3 healthy individuals (one man and two women) in their 20s to 40s and suspending same in 80 ml of anaerobic PBS. The feces suspension was added to each vial by 0.5 ml, placed in an incubator at 37° C., and anaerobically cultured for 4 days with tumble blending once per day. After completion of the culture, an intestinal bacterial pellet was obtained from the entire amount of the culture medium by centrifugation (8,000×g, 5 min). DNA was extracted from this pellet using ISOFECAL for BeadsBeat (manufactured by NIPPON GENE CO., LTD.), and quantitative PCR was performed using GeneAce SYBR qPCR Mix α (manufactured by NIPPON GENE CO., LTD.). Quantitative PCR was performed under the conditions of 45 cycles of 95° C. for 30 sec and 60° C. for 60 sec after 95° C. for 10 min. Primers for quantitative PCR used for detection bifidobacteria are as follows:
(§2) Using the results obtained by quantitative PCR, the relative amount when the control is 1 was calculated, and the results were normalized with z-score.
With `CC(C)[C@H](N)C(=O)O` [Val, L-valine], the proliferation of bifidobacteria result is given as “greater proliferation of bifidobacteria than that with FOS alone”. The same measure, in the same setting: next, `CC[C@H](C)[C@H](N)C(=O)O` [Ile, L-isoleucine]: “greater proliferation of bifidobacteria than that with FOS alone”; `N[C@@H](CCC(=O)O)C(=O)O` [Glu, L-glutamic acid]: “greater proliferation of bifidobacteria than that with FOS alone”. As for `C[C@H](N)C(=O)O` [Ala, L-alanine], the proliferation of bifidobacteria entry was “greater proliferation of bifidobacteria than that with FOS alone”. In the case of `NC(=O)CC[C@H](N)C(=O)O` [Gln, L-glutamine], the proliferation of bifidobacteria entry is listed as “greater proliferation of bifidobacteria than that with FOS alone”.

For the compound `NCCCC[C@H](N)C(=O)O` [Lys, L-lysine], the proliferation of bifidobacteria result is “greater proliferation of bifidobacteria than that with FOS alone”.

A further assay relates to bifidobacteria. The assay is described as follows: Experimental Example 1-2: addition test of amino acid and fructo-oligosaccharide to human feces suspension. It is filed as cell-based. To be noted: amino acid added together with 0.5% FOS, anaerobic culture 4 days, quantitative PCR, compared with FOS alone. Here is the method:
as §1
The PBS solutions for the Examples and Comparative Examples shown in Table 1-2 were prepared and used as media for a feces culture. […]
as §2
In the case of `N[C@@H](Cc1c[nH]cn1)C(=O)O` [His, L-histidine], the proliferation of bifidobacteria result was “greater proliferation of bifidobacteria than that with FOS alone”. Take `O=C(O)[C@@H]1CCCN1` [Pro, L-proline]: the proliferation of bifidobacteria entry is given as “greater proliferation of bifidobacteria than that with FOS alone”.

Another assay deals with bifidobacteria. In words: Experimental Example 2: addition test of amino acid and galacto-oligosaccharide to human feces suspension. To be noted: amino acid added together with 0.5% GOS, anaerobic culture 4 days, quantitative PCR, compared with GOS alone. It is filed as cell-based. As for the experimental part:
as §1
The PBS solutions for the Examples and Comparative Examples shown in Table 2 were prepared and used as media for a feces culture. […]
as §2
As to `N[C@@H](CCC(=O)O)C(=O)O` [Glu, L-glutamic acid], the proliferation of bifidobacteria result is on record as “greater proliferation of bifidobacteria than that with GOS alone”.

As to `NCCCC[C@H](N)C(=O)O` [Lys, L-lysine], the proliferation of bifidobacteria entry is on record as “greater proliferation of bifidobacteria than that with GOS alone”.
